{
  "source": "patent US20080146579A1",
  "about": "“TREATMENT OF PATIENTS WITH CHRONIC PULMONARY DISEASES AND NUTRITIONAL COMPOSITIONS THEREFORE” (N.V. Nutricia, priority 2006, published 2008)",
  "key": {"[1]": {"details": "daily dose of 200 mg; cited from earlier work"}, "[2]": {"test_system": "pulmonary artery pressure", "details": "in vivo studies; cited from earlier work"}, "liver cells": {"test_system": "liver cells", "test": "in vitro experiments in liver cells, nucleotide status", "type": "cell-based", "details": "incubation with increasing concentrations"}},
  "data": [
    {"smiles": "COC1=C(OC)C(=O)C(C/C=C(\\C)CC/C=C(\\C)CC/C=C(\\C)CC/C=C(\\C)CC/C=C(\\C)CC/C=C(\\C)CC/C=C(\\C)CC/C=C(\\C)CC/C=C(\\C)CCC=C(C)C)=C(C)C1=O", "note": "[CoQ10, Coenzyme Q10]", "values": [
      {"measurement": "increase in plasma CoQ10 levels", "setting": "[1]", "result": "more than six-fold increase"}
    ]},
    {"smiles": "CC(=O)N[C@@H](CS)C(=O)O", "note": "[NAC, N-acetyl cysteine]", "values": [
      {"measurement": "endotoxin-induced rise in pulmonary artery pressure", "setting": "[2]", "result": "attenuates"}
    ]},
    {"smiles": "Nc1nc2ncc(CNc3ccc(C(=O)N[C@@H](CCC(=O)O)C(=O)O)cc3)nc2c(=O)[nH]1", "note": "[folic acid]", "values": [
      {"measurement": "nucleotide status", "setting": "liver cells", "result": "able to restore the nucleotide status"}
    ]}
  ]
}
